System: zebrafish
Assay: Cardiotoxicity experiment using zebrafish (heart rate, lethality)
Type: in vivo
Details: 10 uM, n = 10

## COc1ccc(CCN2CCC(Nc3nc4ccccc4n3Cc3ccc(F)cc3)CC2)cc1 [Astemizole, reference compound]
mean
  Changes (%) in heart rate: 46.2%
  Lethality: 0/10
